In US8716279B2, “Pharmaceutical compositions of clonazepam and method of use thereof” (Jazz Pharmaceuticals, Inc., priority 2006, dated 2014):
Converted amounts (≈) assume the structure as drawn.

How the values were obtained:
[1] = Solubility of clonazepam in glycol ethers at 25° C.
Procedure: 10 mg of clonazepam was weighed into glass vials used in the Pfeiffer mono-dose spray system (Pfeiffer of America, Princeton, N.J.). Four samples of each of four solvents were prepared as follows. 130-μL of each solvent was pipetted into the vial, which was then stoppered with a black chlorobutyl rubber stopper.
The vials were removed from the chamber, placed inside polyethylene centrifuge vials, and centrifuged for 2 minutes at 5000 rpm. 10 μL of liquid was then sampled from each vial, accurately weighed, and diluted with 1 mL of acetonitrile. The drug concentration was analyzed by UV using an Agilent HPLC system with no column, 10 μL injection volume, acetonitrile mobile phase, 0.3 mL/min and UV detection at 350 nm.

[2] = Solubility of clonazepam in binary mixtures of matrices; conditions: binary mixture with glycofurol, inferred from FIG. 2
Procedure: Further, the solubility of clonazepam in binary mixtures of Transcutol® (TC), triacetin (TA), glycofurol (GF) and propylene glycol (PG) was evaluated. Solubility limits of clonazepam were determined for the following formulations:
Excess drug (50 mg) was capped with about 500 μL of the solvent matrix in a 1.5 mL microfuge tube and the solution was mixed on a vortex shaker for several minutes. Thereafter, the solution was placed in an ultrasonic bath at 25° C. for 45 minutes. The temperature was regulated with a thermometer and controlled by adding ice into the bath. After 15 minutes of standing, the solutions were centrifuged at 3,000×g for 30 minutes. Solutions were then stored for 16 hours at 25° C. in an ICH cabinet and protected from light.

qEEG mapping = format: in vivo; conditions: human
Procedure: E. Electroencephalography (EEG) Methods: Drug and placebo are administered, for example, at a five-minute intravenous (i.v.) infusion. During 15 minutes following the beginning of the administration EEG is registered. The EEG is registered again at 30, 60, 90, 120, and 180 minutes. Subjects are typically in a quiet laboratory (soundproof and electrically shielded room). During acquisition of EEG measurements subjects recline in an armchair. Usually twenty-eight EEG leads (issued, for example, from a 10-20 system; Jasper, H. H., et al., “Studies of clinical and electrical responses to deep temporal stimulation in men with some considerations of functional anatomy,” Res Publ Assoc Res Nerv Ment Dis. 36:316-34 (1958); Japser, H. H., “Progress and problems in brain research,” J Mt Sinai Hosp N Y. 25(3):244-53 (1958)) are used for recording. An ear linked reference, as well as four artifact channels (detection of eye movement, muscle activity, and other potentials for artifacts) may be used. Silver-plated disc electrodes are attached to subject's scalp, for example, with quick drying collondion. Impedance (for example, of 2000-5000 ohms) is checked before each recording session. A calibration signal is used, before each subject is tested, in order to adjust all the recorded leads thus allowing the construction of EEG or event-related-potentials (ERP) maps. EEGs are taken under resting recording conditions (i.e., subjects are asked to relax with their eyes closed). An example of data analysis used is the method of Dago, et al. (Dago, K T, et al., “Statistical Decision Tree: a tool for studying pharmaco-EEG effects of CNS-active drugs,” Neuropsychobiology, 29(2):91-6 (1994)) which involves a statistical comparison of data obtained during active treatment versus placebo treatment. Typically, topographic mapping of mean EEG parameters and statistical evaluation of treatment effects is carried out in a selected number of healthy volunteers.
EEG profiles are determined for patients dosed intranasally with clonazepam compositions of the present invention. […]

[3] = oral; cited from earlier work
[4] = In vitro permeation across sheep nasal mucosa, Franz cells; conditions: saturated solution, Franz cell, 7 h, FIG. 1
Procedure: Freshly excised sheep nasal mucosa was used and prepared following a standard protocol. The excised sheep nasal mucosa was cleaned by rinsing with de-ionized water and either used fresh or placed flat over a filter paper and stored frozen until used.
(ii) Dosing and Sample Collection—Franz cell studies: Individually calibrated Franz cells with an average surface area and volume of approximately 0.6 cm^2 and 2 mL, respectively, were employed to determine the permeation characteristics of drug. The nasal sheep mucosa was mounted between the two halves of the Franz cell with the mucosal side facing the donor compartment. The receptor compartment was filled with receiver fluid, stirred constantly with a PTFE-coated magnetic follower driven by a submersible magnetic stirrer bed and maintained at 37° C. in a water bath. Approximately 1 mL (infinite dose) of saturated drug solution was placed into the donor compartment and covered with […] ® (Pechiney Plastic Packaging, Inc., Chicago, Ill.) throughout the study. Following the application of the drug solution, the receiver fluid (200 μL) was removed from the receptor compartment via the sampling arm after sampling times (t=1, 2, 3, 4, 5, 6 and 7 h) and analyzed via HPLC. Each sample removed was replaced by an equal volume of fresh pre-warmed (37° C.) receiver fluid. […]

[5] = Solubility of clonazepam in neat solvents; conditions: neat PEG 300
Procedure: The solubility of clonazepam in a number of neat solvents was determined using standard methods.

[6] = Drug recovery, degradation and binding to nasal sheep mucosa; format: in vitro ADME
Procedure: (i) Drug recovery, degradation and binding to nasal sheep mucosa: The effect of drug recovery, degradation and binding to sheep nasal mucosa was determined. Briefly, a known surface area (approx. 1 cm^2) of sheep nasal mucosa was added into a glass vial containing a known concentration (10 μg/mL) of each drug prepared in the receiver fluid (10% ethanol in pH 6 buffer). The content of the vial was allowed to equilibrate at 37° C. over a period of 48 h. At 24 h intervals, a sample was removed and assayed via HPLC. The percentage of drug recovered was calculated using Equation 4: % drug recovered=(drug concentration at t=Y/drug concentration at t=Z)×100 (Equation 4)
where, Y=specific time point at 37° C. (in the presence of nasal sheep mucosa); and Z=specific time point at 37° C. (in the absence of nasal sheep mucosa).
In addition to the stability against heat degradation, the effect of drug binding or degradation in the presence of nasal sheep mucosa was also determined (Table 6).

O=C1CN=C(c2ccccc2Cl)c2cc([N+](=O)[O-])ccc2N1 [Clonazepam, 5-(2-chlorophenyl)-1,3-dihydro-7-nitro-2H-1,4-benzodiazepin-2-one]
Solubilities (mg/mL) of Clonazepam in Solvent/Water Solutions ([1]; 1,2-dimethyxoethane, 100% solvent / 0% water, 25° C. (neat solvent value from Example 11, included for reference)): 39.3 mg/mL
Solubility ([1]; in 1,2-dimethyxoethane, 25 C.): 39.3 mg/mL (≈ 124 mM)
solubility in the 50:50 mixture [2]: about 36.4 mg/mL
EEG changes from baseline (qEEG mapping; all three routes): increased delta and beta activity and decreased alpha and theta activity
beta-1 relative power, time course of effects (post-hoc analysis) (qEEG mapping; intranasal administration): magnitude of effect similar to that from oral administration
time after dosing at which the EEG pattern was noted (qEEG mapping; oral administration): approximately 2 hours
time of maximum blood concentrations [3]: one to two
permeation across sheep nasal mucosa [4]: at steady state
Solubility [5]: 37.0 mg/mL (≈ 117 mM)
degree of binding or degradation in the presence of nasal sheep mucosa ([6]; 37° C.): < 10%
drug recovered in the presence of nasal sheep mucosa ([6]; 37° C. over 48 h): greater than 95%
